Experimental data published in the NIST ThermoML archive (doi:10.1016/j.jct.2013.05.046).

Key:
[1] = xn = mol fraction of the nth substance listed; conditions: 101 kPa, Liquid, Cone and plate viscometry, x2 = 0.8
[2] = refractive index (Na D-line) (dimensionless); xn = mol fraction of the nth substance listed; conditions: 101 kPa, Liquid, Standard Abbe refractometry, x2 = 0.8

CC[P+](c1ccccc1)(c1ccccc1)c1ccccc1.[I-] [ethyltriphenylphosphonium iodide] + O=S1(=O)CCCC1
Conditions	refractive index, 298.15 K	refractive index, 303.15 K	refractive index, 313.15 K	refractive index, 323.15 K	refractive index, 333.15 K	viscosity, 298.15 K [mPa·s]	viscosity, 308.15 K [mPa·s]	viscosity, 318.15 K [mPa·s]	viscosity, 328.15 K [mPa·s]	viscosity, 338.15 K [mPa·s]
[1]	–	–	–	–	–	95.03	52.14	24.15	15.24	9.578
[2]	1.516	1.5142	1.5104	1.5069	1.5033	–	–	–	–	–
